In patent US20170190705A1, “Compositions and Methods for Inhibiting BMP” (THE BRIGHAM AND WOMAN'S HOSPITAL, INC., priority 2014, published 2017):

Assays:
Format in all cases: biochemical
[1] = target: T1, JAK3 (Homo sapiens, UniProt P52333); experiment: Kinome profiling JAK3; details: read-out: Inhibitory activity JAK3; for inhibition at 0.1 µM: 100 nM
T1 sequence (P52333 1-1124): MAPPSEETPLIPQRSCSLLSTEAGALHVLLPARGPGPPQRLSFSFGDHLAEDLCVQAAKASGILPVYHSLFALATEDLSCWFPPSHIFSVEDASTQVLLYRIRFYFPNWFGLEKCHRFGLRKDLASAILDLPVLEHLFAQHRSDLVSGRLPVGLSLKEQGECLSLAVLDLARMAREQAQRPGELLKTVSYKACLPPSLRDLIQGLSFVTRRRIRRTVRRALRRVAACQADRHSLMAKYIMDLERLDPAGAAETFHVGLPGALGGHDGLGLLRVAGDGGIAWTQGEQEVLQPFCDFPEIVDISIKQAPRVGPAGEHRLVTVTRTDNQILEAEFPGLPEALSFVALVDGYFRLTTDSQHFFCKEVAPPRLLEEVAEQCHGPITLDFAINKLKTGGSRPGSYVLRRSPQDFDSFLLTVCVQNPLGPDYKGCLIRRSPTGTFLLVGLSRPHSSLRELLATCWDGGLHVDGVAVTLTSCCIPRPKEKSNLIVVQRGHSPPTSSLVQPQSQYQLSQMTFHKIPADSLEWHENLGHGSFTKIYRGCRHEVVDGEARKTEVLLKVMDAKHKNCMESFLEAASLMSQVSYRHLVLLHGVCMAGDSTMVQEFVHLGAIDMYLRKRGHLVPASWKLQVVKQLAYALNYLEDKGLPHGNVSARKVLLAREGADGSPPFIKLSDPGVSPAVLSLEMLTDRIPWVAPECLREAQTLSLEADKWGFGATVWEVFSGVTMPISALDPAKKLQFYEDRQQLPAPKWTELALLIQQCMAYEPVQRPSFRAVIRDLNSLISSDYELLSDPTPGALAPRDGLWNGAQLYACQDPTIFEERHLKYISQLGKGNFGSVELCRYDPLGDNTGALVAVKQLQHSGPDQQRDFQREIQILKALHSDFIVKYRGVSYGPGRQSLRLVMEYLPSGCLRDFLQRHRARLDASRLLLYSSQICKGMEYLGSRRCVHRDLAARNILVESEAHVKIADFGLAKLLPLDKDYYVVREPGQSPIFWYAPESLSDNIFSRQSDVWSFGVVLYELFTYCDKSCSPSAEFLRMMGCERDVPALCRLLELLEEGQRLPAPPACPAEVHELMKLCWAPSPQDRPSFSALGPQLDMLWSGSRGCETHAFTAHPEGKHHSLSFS
Description: (§1) . The kinome-wide selectivity was determined following the methods previously reported by Mohedas et al., ACS Chem Biol 2013, 8, 1291-1302 and Sanvitale et al., PLoS One 2013, 8, e62721.

[2] = target: T2, SGK2 (Homo sapiens, UniProt Q9HBY8); experiment: Kinome profiling SGK2; details: read-out: Inhibitory activity SGK2; for inhibition at 0.1 µM: 100 nM
T2 sequence (Q9HBY8 1-367): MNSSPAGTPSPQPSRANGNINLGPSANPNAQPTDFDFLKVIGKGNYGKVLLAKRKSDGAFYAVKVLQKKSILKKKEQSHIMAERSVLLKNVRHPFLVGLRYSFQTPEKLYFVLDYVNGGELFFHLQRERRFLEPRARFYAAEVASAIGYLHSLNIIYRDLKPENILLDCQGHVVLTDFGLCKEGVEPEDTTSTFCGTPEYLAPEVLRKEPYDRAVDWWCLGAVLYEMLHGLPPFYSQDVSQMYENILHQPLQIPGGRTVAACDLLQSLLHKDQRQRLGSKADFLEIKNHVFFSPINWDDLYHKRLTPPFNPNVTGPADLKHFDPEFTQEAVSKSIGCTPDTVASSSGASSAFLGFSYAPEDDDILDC
Description: as §1

[3] = target: T3, NEK1 (Homo sapiens, UniProt Q96PY6); experiment: Kinome profiling NEK1; details: read-out: Inhibitory activity NEK1; for inhibition at 0.1 µM: 100 nM
T3 sequence (Q96PY6 1-1258): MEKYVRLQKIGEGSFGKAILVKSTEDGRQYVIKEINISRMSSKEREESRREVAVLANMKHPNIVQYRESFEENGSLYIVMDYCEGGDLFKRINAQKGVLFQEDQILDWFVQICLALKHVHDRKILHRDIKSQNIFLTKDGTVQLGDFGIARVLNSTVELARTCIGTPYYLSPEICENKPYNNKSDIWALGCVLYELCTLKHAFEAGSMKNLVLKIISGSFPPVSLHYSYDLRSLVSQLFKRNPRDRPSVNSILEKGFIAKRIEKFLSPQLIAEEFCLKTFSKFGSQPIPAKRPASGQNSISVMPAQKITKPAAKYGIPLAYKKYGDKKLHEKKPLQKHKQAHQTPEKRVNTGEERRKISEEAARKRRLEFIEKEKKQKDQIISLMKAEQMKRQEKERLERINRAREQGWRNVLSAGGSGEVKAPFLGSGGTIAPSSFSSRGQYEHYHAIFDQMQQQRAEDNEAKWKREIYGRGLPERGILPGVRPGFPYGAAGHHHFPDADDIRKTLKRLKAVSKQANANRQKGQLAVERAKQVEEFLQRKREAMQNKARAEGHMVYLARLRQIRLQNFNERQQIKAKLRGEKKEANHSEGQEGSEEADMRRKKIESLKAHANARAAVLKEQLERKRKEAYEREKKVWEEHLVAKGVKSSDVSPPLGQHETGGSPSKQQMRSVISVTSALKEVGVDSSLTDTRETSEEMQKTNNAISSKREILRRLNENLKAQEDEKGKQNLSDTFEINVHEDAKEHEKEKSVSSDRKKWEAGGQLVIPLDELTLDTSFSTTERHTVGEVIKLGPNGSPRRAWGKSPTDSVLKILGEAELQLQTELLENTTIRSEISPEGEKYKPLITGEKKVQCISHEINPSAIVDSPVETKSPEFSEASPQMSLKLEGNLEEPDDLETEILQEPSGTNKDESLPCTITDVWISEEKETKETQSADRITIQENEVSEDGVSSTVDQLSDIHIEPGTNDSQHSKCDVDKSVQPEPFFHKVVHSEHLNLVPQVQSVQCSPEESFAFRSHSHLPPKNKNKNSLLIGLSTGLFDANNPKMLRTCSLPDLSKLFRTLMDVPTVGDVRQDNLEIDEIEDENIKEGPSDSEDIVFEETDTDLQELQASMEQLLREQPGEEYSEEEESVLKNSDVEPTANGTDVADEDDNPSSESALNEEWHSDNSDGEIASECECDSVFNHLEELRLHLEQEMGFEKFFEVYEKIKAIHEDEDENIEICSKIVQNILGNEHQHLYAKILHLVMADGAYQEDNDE
Description: as §1

[4] = target: SPHK1 (Homo sapiens, UniProt Q9NYA1); experiment: Kinome profiling SPHK1; details: read-out: Inhibitory activity SPHK1; for inhibition at 0.1 µM: 100 nM
Description: as §1

Sequence of SPHK1 (Q9NYA1 whole entry): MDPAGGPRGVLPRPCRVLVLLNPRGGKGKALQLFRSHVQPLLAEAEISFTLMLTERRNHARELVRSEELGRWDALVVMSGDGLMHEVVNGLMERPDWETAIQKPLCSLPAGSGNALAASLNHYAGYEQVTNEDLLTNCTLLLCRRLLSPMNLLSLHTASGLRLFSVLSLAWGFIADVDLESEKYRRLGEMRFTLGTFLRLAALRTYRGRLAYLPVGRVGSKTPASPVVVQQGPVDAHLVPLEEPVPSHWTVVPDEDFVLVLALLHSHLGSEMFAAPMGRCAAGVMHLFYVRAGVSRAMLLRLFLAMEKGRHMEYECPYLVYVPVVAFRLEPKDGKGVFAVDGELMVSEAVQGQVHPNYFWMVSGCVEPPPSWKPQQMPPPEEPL

SMILES	inhibition at 0.1 µM [1] [%]	inhibition at 1 µM [1] [%]	inhibition at 0.1 µM [2] [%]	inhibition at 1 µM [2] [%]	inhibition at 0.1 µM [3] [%]	inhibition at 1 µM [3] [%]	inhibition at 0.1 µM [4] [%]	inhibition at 1 µM [4] [%]
COc1cc(-c2cc(-c3ccc(N4CCNCC4)cc3)cnc2C)cc(OC)c1OC [Compound 10, 1-(4-(6-methyl-5-(3,4,5-trimethoxyphenyl)pyridin-3-yl)phenyl)piperazine]	3	3	1	-1	2	1	0	0
COc1cc(-c2cc(-c3ccc(N4CCNCC4)cc3)cnc2N)cc(OC)c1OC [Compound 15, 5-(4-(piperazin-1-yl)phenyl)-3-(3,4,5-trimethoxyphenyl)pyridin-2-amine]	0	3	2	3	1	1	2	-12
